Results as given in US9271978B2 (Zenith Epigenetics Corp., priority 2012, dated 2016).

Legend:
Design in all cases: key: Active: Compounds with an IC50 value less than 30 μM were deemed to be active.; Not Active: Compounds with an IC50 value less than 30 μM were deemed to be active
[1] = system: human AML MV-4-11 (CRL-9591) cells; assay: Inhibition of cell proliferation in MV4-11 cells; assay type: cell-based; details: human AML MV-4-11 cells, 72 h; active = IC50 <30 μM
Description: MV4-11 cells: 96-well plates were seeded with 5×10^4 cells per well of exponentially growing human AML MV-4-11 (CRL-9591) cells and immediately treated with two-fold dilutions of test compounds, ranging from 30 μM to 0.2 μM. Triplicate wells were used for each concentration, as well as a media only and three DMSO control wells. The cells and compounds were incubated at 37° C., 5% CO2 for 72 h before adding 20 μL of the CellTiter Aqueous One Solution (Promega) to each well and incubating at 37° C., 5% CO2 for an additional 3-4 h. The absorbance was taken at 490 nm in a spectrophotometer and the percentage of proliferation relative to DMSO-treated cells was calculated after correction from the blank well. IC50 were calculated using the GraphPad Prism software.

[2] = target: T1, second bromodomain of Brd2 (BRD2(2)) (Homo sapiens, UniProt P25440); assay: Inhibition of tetra-acetylated histone H4 binding to Brd2 bromodomain 2 (TR-FRET); details: tetra-acetylated histone H4 peptide, active = IC50 <30 μM
T1 construct: made in house; host or cells: E. coli BL21 (DE3)
Summary of the method: (§1)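 IC50 values come from dose-response curves of the 665 nm to 620 nm TR-FRET signal decrease, measured after 2 h at room temperature. Reactions contained 200 nM E. coli-expressed His-tagged bromodomain, 25-50 nM biotinylated tetra-acetylated H4 peptide, Eu-streptavidin plus XL665 anti-His antibody, with 30 mM HEPES pH 7.4, 320 mM KF and 0.2% DMSO.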

[3] = target: T2, Brd4 bromodomain 1 (BRD4(1)) (Homo sapiens, UniProt O60885); assay: Inhibition of tetra-acetylated histone H4 binding to Brd4 bromodomain 1 (TR-FRET); details: tetra-acetylated histone H4 peptide, active = IC50 <30 μM
T2 construct: Illustrative results with the first bromodomain of Brd4; made in house; host or cells: E. coli BL21 (DE3)
Summary of the method: as §1

hIL-6 mRNA = assay: Inhibition of hIL-6 mRNA transcription in U937 cells; assay type: cell-based, human; details: LPS stimulation, active = IC50 <30 μM
Description: In this example, hIL-6 mRNA in tissue culture cells was quantitated to measure the transcriptional inhibition of hIL-6 when treated with a compound of the present disclosure.
A human leukemic monocyte lymphoma cell line (U937) was plated (3.2×10^4 cells per well) in a 96-well plate in […] RPMI-1640 containing 10% FBS and penicillin/streptomycin, and differentiated into macrophages for 3 days in 60 ng/mL PMA ([…]) at 37° C. in 5% CO2 prior to the addition of the compound of interest. The cells were pretreated for 1 h with the test compound prior to stimulation with 1 ug/mL lipopolysaccharide from Escherichia coli. The cells were incubated at 37° C. for 3 h before the cells were harvested. At time of harvest, the spent media was removed from the cells and the cells were rinsed in […] PBS. Cell lysis solution (70 μL) was added the cells in each well and incubated for 5-10 min at room temperature, to allow for complete cell lysis and detachment. mRNA was then prepared using the “mRNA Catcher PLUS plate” (Invitrogen), according to the protocol supplied. After the last wash, as much wash buffer as possible was aspirated without allowing the wells to dry. Elution buffer (E3, 70 μL) was then added to each well. mRNA was then eluted by incubating the mRNA Catcher PLUS plate with Elution Buffer for 5 min at 68° C. and then immediately placing the plate on ice.
The eluted mRNA isolated was then used in a one-step quantitative real-time PCR reaction, using components of the Ultra Sense Kit together with Applied Biosystems primer-probe mixes. Real-time PCR data was analyzed, normalizing the Ct values for hIL-6 to an internal control, prior to determining the fold induction of each unknown sample, relative to the control.

c-myc = assay: Inhibition of c-myc expression in MV4-11 cells (mRNA, real-time PCR); assay type: cell-based; details: Human AML MV4-11 cells, 3 h incubation
Description: MV4-11 cells (2.5×10^4 cells) were plated in 96 well U-bottom plates with test compound or DMSO (0.1%), and incubated for 3 h at 37° C. Cells were then harvested by centrifugation, lysed, and mRNA was isolated using the mRNA catcher plus kit (Invitrogen). Reverse transcription of the mRNA and duplex amplification of the c-myc and cyclophilin cDNAs was performed using the RNA Ultrasense kit (Invitrogen) and a ViiA7 real-time PCR machine (Applied Biosystems). IC50 values were determined from a dose response curve.

T1 sequence (P25440 344-453 limits assumed): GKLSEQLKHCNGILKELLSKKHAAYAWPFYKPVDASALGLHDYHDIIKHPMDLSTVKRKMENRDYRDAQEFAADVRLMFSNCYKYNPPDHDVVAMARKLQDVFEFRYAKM

Row | Compound | Cell Proliferation activity (IC50 <30 μM) [1] | FRET activity (IC50 <30 μM) BRD2(2) [2] | FRET activity (IC50 <30 μM) BRD4(1) [3] | IL-6 activity (IC50 <30 μM) (hIL-6 mRNA) | c-myc activity (IC50 <30 μM) (c-myc)
1 | Cc1noc(C)c1-c1ccc(=O)n(CCc2ccccc2)n1 [Example 1, 6-(3,5-Dimethylisoxazol-4-yl)-2-phenethylpyridazin-3(2H)-one] | Not Active | Active | Active | Not Active | Not Active
2 | Cc1noc(C)c1-c1cc(N)c(=O)n(Cc2ccc(N3CCOCC3)cc2)c1 [Example 238, 3-Amino-5-(3,5-dimethylisoxazol-4-yl)-1-(4-morpholinobenzyl)pyridin-2(1H)-one] | Active |  | Active | Active | Active
3 | Cc1cc(Cn2cc(-c3c(C)noc3C)cc(N)c2=O)on1 [Example 240, 3-amino-5-(3,5-dimethylisoxazol-4-yl)-1-((3-methylisoxazol-5-yl)methyl)pyridin-2(1H)-one] | Active |  | Active | Active | Active
4 | Cc1noc(C)c1-c1cc(N)c(=O)n(Cc2ccc(C(C)C)cc2)c1 [Example 242, 3-Amino-5-(3,5-dimethylisoxazol-4-yl)-1-(4-isopropylbenzyl)pyridin-2(1H)-one] | Active |  | Active | Active | Active
5 | Cc1cc(Cn2cc(-c3c(C)noc3C)cc(N)c2=O)c(C)s1 [Example 251, 3-amino-5-(3,5-dimethylisoxazol-4-yl)-1-((2,5-dimethylthiophen-3-yl)methyl)pyridin-2(1H)-one] | Active |  | Active | Active | Active
6 | Cc1noc(C)c1-c1cc(N)c(=O)n(Cc2cncc(Cl)c2)c1 [Example 252, 3-amino-1-((5-chloropyridin-3-yl)methyl)-5-(3,5-dimethylisoxazol-4-yl)pyridin-2(1H)-one] | Active |  | Active | Active | Active
7 | Cc1noc(C)c1-c1cc(N)c(=O)n(Cc2ncccc2Cl)c1 [Example 254, 3-amino-1-((3-chloropyridin-2-yl)methyl)-5-(3,5-dimethylisoxazol-4-yl)pyridin-2(1H)-one] | Active |  | Active | Active | Active
8 | Cc1noc(C)c1-c1cc(N)c(=O)n(Cc2ccc3c(c2)OCO3)c1 [Example 256, 3-amino-1-(benzo[d][1,3]dioxol-5-ylmethyl)-5-(3,5-dimethylisoxazol-4-yl)pyridin-2(1H)-one] | Active |  | Active | Active | Active
9 | Cc1noc(C)c1-c1cc(N)c(=O)n(C(C)c2ccccc2)c1 (stereo not shown) [Example 263, 3-amino-5-(3,5-dimethylisoxazol-4-yl)-1-(1-phenylethyl)pyridin-2(1H)-one] | Active |  | Active | Active | Active
10 | Cc1noc(C)c1-c1cc(N)c(=O)n(Cc2ccc(C#N)s2)c1 [Example 264, 5-((3-amino-5-(3,5-dimethylisoxazol-4-yl)-2-oxopyridin-1(2H)-yl)methyl)thiophene-2-carbonitrile] | Active |  | Active | Active | Active
11 | Cc1noc(C)c1-c1cc(N)c(=O)n(Cc2ccc(I)cc2)c1 [Example 267, 3-amino-5-(3,5-dimethylisoxazol-4-yl)-1-(4-iodobenzyl)pyridin-2(1H)-one] | Active |  | Active | Active | Active
12 | Cc1noc(C)c1-c1cc(N)c(=O)n(Cc2c[nH]c3ccccc23)c1 [Example 270, 1-((1H-indol-3-yl)methyl)-3-amino-5-(3,5-dimethylisoxazol-4-yl)pyridin-2(1H)-one] | Active |  | Active | Active | Active
13 | Cc1noc(C)c1-c1cc(N)c(=O)n(Cc2ccc(Br)c(C#N)c2)c1 [Example 272, 5-((3-amino-5-(3,5-dimethylisoxazol-4-yl)-2-oxopyridin-1(2H)-yl)methyl)-2-bromobenzonitrile] | Active |  | Active | Active | Active
14 | Cc1noc(C)c1-c1cc(N)c(=O)n(Cc2ccc(C#N)c(Br)c2)c1 [Example 273, 4-((3-amino-5-(3,5-dimethylisoxazol-4-yl)-2-oxopyridin-1(2H)-yl)methyl)-2-bromobenzonitrile] | Active |  | Active | Active | Active
15 | Cc1noc(C)c1-c1cc(N)c(=O)n(Cc2cccc3ncccc23)c1 [Example 274, 3-amino-5-(3,5-dimethylisoxazol-4-yl)-1-(quinolin-5-ylmethyl)pyridin-2(1H)-one] | Active |  | Active | Active | Active
